Here are results for eleven compounds from patent EP2662079A1 (Ordway Research Institute, Inc., priority 2012, dated 2013).

Values joined by “and” are separate entries in the source; they are usually repeats but may differ in a detail not shown here. Equal values may be shown once.

Data set [1] relates to chick chorioallantoic membrane (CAM). The data set can be described thus: Chorioallantoic membrane (CAM) model of angiogenesis. It is filed as in vivo. As to conditions: for Mean Branch points: n=8. How it is done: In vivo neovascularization was examined by methods described previously. 9-12 Ten-day-old chick embryos were purchased from SPAFAS (Preston, CT) and incubated at 37°C with 55% relative humidity. A hypodermic needle was used to make a small hole in the shell concealing the air sac, and a second hole was made on the broad side of the egg, directly over an avascular portion of the embryonic membrane that was identified by candling. A false air sac was created beneath the second hole by the application of negative pressure at the first hole, causing the CAM to separate from the shell. A window approximately 1.0 cm^2 was cut in the shell over the dropped CAM with a small-crafts grinding wheel (Dremel, division of Emerson Electric Co.), allowing direct access to the underlying CAM. FGF2 (1µg/mL) was used as a standard proangiogenic agent to induce new blood vessel branches on the CAM of 10-day-old embryos. Sterile disks of No. 1 filter paper (Whatman International) were pretreated with 3 mg/mL cortisone acetate and 1 mmol/L PTU and air dried under sterile conditions. Thyroid hormone, hormone analogs, FGF2 or control solvents, and inhibitors were then applied to the disks and the disks allowed to dry. The disks were then suspended in PBS and placed on growing CAMs. […] At 24 hours, the MAPK cascade inhibitor PD 98059 was also added to CAMs topically by means of the filter disks.
After incubation at 37°C with 55% relative humidity for 3 days, the CAM tissue directly beneath each filter disk was resected from control and treated CAM samples. Tissues were washed 3X with PBS, placed in 35-mm Petri dishes (Nalge Nunc), and examined under an SV6 stereomicroscope (Zeiss) at X50 magnification. Digital images of CAM sections exposed to filters were collected using a 3-charge-coupled device color video camera system (Toshiba) and analyzed with Image-Pro software (Media Cybernetics). The number of vessel branch points contained in a circular region equal to the area of each filter disk were counted. One image was counted in each CAM preparation, and findings from 8 to 10 CAM preparations were analyzed for each treatment condition (thyroid hormone or analogs, FGF2, FGF2 antibody, PD 98059). In addition, each experiment was performed 3 times. The resulting angiogenesis index is the mean ± SEM of new branch points.

The subject of a further data set is ERK1/2. The data set can be described thus: MAPK activation (nuclear phosphorylated ERK1/2 immunoblot). It is filed as cell-based. The settings on record: for effect on MAPK activation by T4: PD 98059 30 µmol/L or CGP41251 100 nmol/L for 30 minutes, then 10^-7 M T4. How it is done:
ECV304 endothelial cells were cultured in M199 medium with 0.25% hormone-depleted serum 13 for 2 days. […] Nuclear fractions were pre-pared from all samples by the method reported previously (see Li et al., Carcinogenesis 29:62-69 (2008)), the proteins separated by polyacrylamide gel electrophoresis, and transferred to membranes for immunoblotting with antibody to phosphorylated ERK 1/2.
For orientation: A western blot detects proteins with antibodies after separation by electrophoresis.

Data set [2] has as its system transplantable liver tumor. As to conditions: PTU alone; cited from earlier work.
The subject of the next data set is glioblastoma (GBM). As to conditions: mild hypothyroidism induced by PTU; cited from earlier work.
For another data set, the system named is Matrigel plugs. As to the kind of experiment: Mouse Matrigel model of angiogenesis (plug hemoglobin). The data set is classed as in vivo, mice (C57BL/6NCr). The settings on record: for Inhibition of FGF induced angiogenesis (grade): mouse matrigel model. As to the method: Normal male mice (C57BL/6NCr) 6-8 weeks of age and weighing ~20 g were purchased from Taconic farm. Animals were housed 4 per cage, in controlled conditions of temperature (20-24 °C); humidity (60-70%) and 12 hrs. light/dark cycle provided with food and water ad libitum. […] Matrigel (BD Bioscience, San Jose CA) was thawed overnight at 4 °C and placed on ice. Aliquots of matrigel were placed into cold polypropylene tubes to prevent the matrigel from solidifying and the angiogenesis promoter added to matrigel with or without agonist. Mice were treated daily. Matrigel was subcutaneously injected as triple injection per animal at 100 µL/animal. At day 14 post plug implant all animals were killed in CO2 chamber and matrigel plugs were collected. […]
The matrigel plugs dissected from the mice were carefully stripped of any remaining peritoneum. The plugs were placed into 0.5 mL tube of ddH2O and homogenized for 5-10 min. […] Absorbance was read with a Microplate Manager ELISA reader at 540 nm. […] Hemoglobin concentration is a reflection of the number of blood vessels in the plugs.

A further data set has as its system ECV304 endothelial cells. As to the kind of experiment: FGF2 release from ECV304 endothelial cells (ELISA). It is filed as cell-based. How it is done: ECV304 endothelial cells were cultured in M199 medium supplemented with 10% fetal bovine serum. […] After 72 hours, the supernatants were harvested and assays for FGF performed without dilution using a commercial ELISA system (R&D Systems) (See Davis et al., Circ Res 94:1500-1506 (2004)).
On the technique in general: ELISA stands for enzyme-linked immunosorbent assay.

Another data set relates to FGF2 cDNA. The data set can be described thus: RT-PCR of FGF2 in ECV304 cells. It is filed as cell-based. As to conditions: T4 10^-7 mol/L for 6 to 48 hours. How it is done:
RNA (1 µg) was subjected to reverse transcription-polymerase chain reaction (RT-PCR) using the Access RT-PCR system (Promega). Total RNA was reverse transcribed into cDNA at 48°C for 45 minutes, then denatured at 94°C for 2 minutes. Second-strand synthesis and PCR amplification were performed for 40 cycles with denaturation at 94°C for 30 s, annealing at 60°C for 60 s, and extension at 68°C for 120 s, with final ex-tension for 7 minutes at 68°C after completion of all cycles. PCR primers for FGF2 were as follows: FGF2 sense strand 5'-[…]-3' (SEQ ID NO:1), antisense strand 5' […]-3' (SEQ ID NO:2); the length of the PCR product was 734 bp. Primers for GAPDH included the sense strand 5'-[…]-3' (SEQ ID NO:3), and antisense strand 5'-[…]-3' (SEQ ID NO:4); the length of the PCR product was 218 bp. […] The target bands of the gel were quantified using LabImage software (Kapelan), and the value for [FGF2/GAPDH]X10 calculated for each time point.

For data set [3] the following is noted: cited from earlier work.
[4] abbreviates: CAM model, FGF (1.25 µg/ml) + compound at 10 µg/plug.
Setting [5] is: FGF 100 ng + compound 10 µg/plug, n= 7-14.

On to `COc1cccc(-c2cc(=O)c3ccccc3o2)c1N` [PD 98059], for which, in data set [1] (3 µmol/L PD 98059), the “effect on blood vessel branching caused by T3 and T4” value is reported as “completely blocked”. In addition, the “effect on MAPK activation by T4” value in the data set on ERK1/2 is “inhibited”.

`CCCc1cc(=O)[nH]c(=S)[nH]1` [PTU, 6-N-propyl-2-thiouracil]: in data set [2], the “growth rate versus control neoplasms” value is on record as “no difference in growth rate”. In addition, in the data set on glioblastoma (GBM), the “improvement of the duration of survival” value is 3 fold.

For `CCNC(Cc1cc(I)c(Oc2cc(I)c(O)c(I)c2)c(I)c1)C(=O)O` (centres unmarked) [T4 analog 11, 2-(Ethylamino)-3-[4-(4-hydroxy-3,5-diiodophenoxy)-3,5-diiodophenyl]propanoic acid], the “Mean % of stimulation (comparing to PBS)” value in data set [1] (CAM model, 0.1 µM) is given as 86.3 ± 9.4%. In addition, the “Mean Branch points” value in data set [1] (CAM model, 0.1 µM, mean ± SEM) came out at 136± 12.8. Also, in the data set with Matrigel plugs (10 µg/matrigel plug), the “Mean stimulation of angiogenesis (%)” value is given as 45±33%. In addition, the “Hemoglobin (mg/mL)± SEM” value with Matrigel plugs (10 µg/matrigel plug, n= 6-7) was determined as 0.6 ± 0.2 mg/mL.

Take `CC(C)(C)OC(=O)NC(Cc1cc(I)c(Oc2cc(I)c(OCC3CO3)c(I)c2)c(I)c1)C(=O)OCC1CO1` (centres unmarked) [T4 analog 14, Oxiran-2-ylmethyl-2-(tert-butoxycarbonylamino)-3-(4-(3,5-diiodo-4-(oxiran-2-ylmethoxy)phenoxy)-3,5-diiodophenyl)propanoate]: in the data set on Matrigel plugs (10 µg/matrigel plug, n= 6-7), the “Hemoglobin (mg/mL)± SEM” value is 0.3 ± 0.1 mg/mL.

As to `CC(C)(C)OC(=O)Cc1cc(I)c(Oc2cc(I)c(O)c(I)c2)c(I)c1` [Tetrac analog 3, tert-Butyl-2-(4-(4-hydroxy-3,5-diiodophenoxy)-3,5-diiodophenyl)acetate], in data set [1] (setting [4]), the “Mean % Inhibition” value was found to be 88±13% and the “Mean Branch points” value is given as 79±7. Further, the “Hemoglobin (mg/mL)± SEM” value with Matrigel plugs (setting [5]) is 0.4 ± 0.1 mg/mL. For the same compound, the “Inhibition of FGF induced angiogenesis (grade)” value (shortened to “Inhibition … (grade)”) with Matrigel plugs was “strong (compounds were considered to be strong inhibitors if they achieved more than 50% inhibition as compared to the control)”.

Consider `O=C(Cc1cc(I)c(Oc2cc(I)c(OCC3CO3)c(I)c2)c(I)c1)NC1CCCCC1` (centres unmarked) [Tetrac analog 6, N-cyclohexyl-2-(4-(3,5-diiodo-4-(oxiran-2-ylmethoxy)phenoxy)-3,5-diiodophenyl)acetamide], for which the “Hemoglobin (mg/mL)± SEM” value in the data set with Matrigel plugs (setting [5]) was found to be 0.7 ± 0.1 mg/mL. For the same compound, in the data set with Matrigel plugs, the “Inhibition … (grade)” value is “strong (compounds were considered to be strong inhibitors if they achieved more than 50% inhibition as compared to the control)”.

For the compound `O=C(Cc1cc(I)c(Oc2cc(I)c(O)c(I)c2)c(I)c1)NC1CCCCC1` [Tetrac analog 4, N-cyclohexyl-2-(4-(4-hydroxy-3.5-diiodophenoxy)-3,5-diiodophenyl)acetamide], in the data set with Matrigel plugs (setting [5]), the “Hemoglobin (mg/mL)± SEM” value was found to be 0.2 ± 0.1 mg/mL. The “Inhibition … (grade)” value with Matrigel plugs is reported as “strong (compounds were considered to be strong inhibitors if they achieved more than 50% inhibition as compared to the control)”.

In the case of `CO[C@@H]1[C@H](N(C)C(=O)c2ccccc2)C[C@H]2O[C@]1(C)n1c3ccccc3c3c4c(c5c6ccccc6n2c5c31)C(=O)NC4` [CGP41251], in the data set with ERK1/2, the “effect on MAPK activation by T4” value is “blocked”.

With `CNC(Cc1cc(I)c(Oc2cc(I)c(O)c(I)c2)c(I)c1)C(=O)[O-].O.O.[K+]` (centres unmarked) [T4 analog 10, Potassium 3-[4-(4-hydroxy-3,5-diiodophenoxy)-3,5-diiodophenyl]-2-(methylamino)propanoate dihydrate], in the data set with Matrigel plugs (10 µg/matrigel plug, n= 6-7), the “Hemoglobin (mg/mL)± SEM” value is 0.8 ± 0.2 mg/mL.

Take `CC(C)[Si](OC(=O)Cc1cc(I)c(Oc2cc(I)c(O)c(I)c2)c(I)c1)(C(C)C)C(C)C` [Tetrac analog 5, Triisopropylsilyl-2-(4-(4-hydroxy-3,5-diiodophenoxy)-3,5-diiodophenyl)acetate]: the “Hemoglobin (mg/mL)± SEM” value in the data set with Matrigel plugs (setting [5]) is 0.2 ± 0.1 mg/mL. Besides, the “Inhibition … (grade)” value with Matrigel plugs was “strong (compounds were considered to be strong inhibitors if they achieved more than 50% inhibition as compared to the control)”.

Take `N[C@@H](Cc1cc(I)c(Oc2cc(I)c(O)c(I)c2)c(I)c1)C(=O)O` [T4, L-thyroxine]: the “generation of new blood vessels from existing vessels promoted” value in data set [1] (10^7-10-^9 M) is “two- to three-fold”. Also, the “Branch pts ± SEM” value in data set [1] (CAM assay before conjugation, 0.1 µM) was 137.3 ± 8.8. Further, the increase in angiogenesis in data set [1] (CAM model, 3 experiments (Figure 5A)) is on record as 1.5 fold. For the same compound, the “Mean % of stimulation (comparing to PBS)” value in data set [1] (CAM model, 0.1 µM) is on record as 87.7 ± 7%. For the same compound, the “Mean Branch points” value in data set [1] (CAM model, 0.1 µM, mean ± SEM) was 137± 8. The “ANGIOGENESIS INDEX” value in data set [1] (CAM model, 0.1uM, n = 8 per group) stood at 143.8 ± 7.9. Also, the “increase in blood vessel branch formation” value in data set [1] (T4 0.1 µmol/L for 3 days) is 2.5 fold and 2.3 fold. Further, in the data set on ECV304 endothelial cells (T4 (0.1 µmol/L) or T3 (0.01 µmol/L) for 3 days), the “increase of FGF2 concentration in the medium” value was 1.4 fold. For the same compound, the “FGF2 (pg/mL/10^6 cells)” value in the data set on ECV304 endothelial cells (T4 (0.1 µmol/L), 3 days) amounted to 39.2 ±2.8 pg/mL/10^6 cells. In the data set with ERK1/2 (T4 10^-7 mol/L), the “appearance of phosphorylated ERK1/2 in cell nuclei” value is ≤ 15 min. Besides, the “increase in abundance of FGF2 cDNA, corrected for GAPDH content” value in the data set with FGF2 cDNA was “apparent by 6 hours”. For the same compound, in the data set with Matrigel plugs (T4 (0.1 µM)), the “Hemoglobin (mg/mL)± SEM” value is 0.9 ± 0.2 mg/mL and the “Mean stimulation of angiogenesis (%)” value was 100±22%. Further, the “Hemoglobin (mg/mL)± SEM” value with Matrigel plugs (T4 alone, 10 µg/matrigcl plug, n= 25) is 1.2 ± 0.4 mg/mL. Moreover, in data set [3], the “pKa of the COOH (carboxylic acid) group” value was ~2.0 and the “pKa of the NH2 (amino) group” value was “approximately 9.0”. Also, in data set [3] (fluorescent quenching), the “pKa of the PhOH (phenol) group” value is listed as 6.2.
